Test results: patent US20090196950A1, “METHODS OF FEEDING PIGS AND PRODUCTS COMPRISING BENEFICIAL FATTY ACIDS” (Monsanto Company, priority 2008, published 2009)

Assay: 35 day feeding study in pigs: fatty acid composition of pork tissues (belly, loin, ham, skin) by GC-FID of FAMEs
Format: in vivo
Procedure: A 35 day study was conducted to determine whether pigs fed a diet containing SDA could produce meat with improved fatty acid profiles including increased levels of SDA, EPA, and DHA.
A control diet (Treatment 1) formulated to meet or exceed NRC (1998) nutrient requirements for pigs in the late finishing phase (approximately 80-120 kg BW containing 1.14% corn oil and no added SDA ethyl ester (70% w/w SDA) were fed ad libitum during an acclimation period of at least 1 week duration. Ethoxyquin was included in all diets as an antioxidant at a concentration of 150 parts per million (0.015%, as-fed basis), the maximum level allowed by FDA regulation in animal feeds. The same control diet was fed ad libitum to the control pigs (pen receiving Treatment 1) throughout a 35-day test period. Four test diets (Treatment 2, 3, 4, and 5) with SDA ethyl ester substituted for corn oil to provide 0.2, 0.4, 0.6 and 0.8% (w/w SDA active ingredient, as-is basis) were fed ad libitum to one pen of four pigs throughout the 35-day test period Table 4). All diets were fed in meal form.
All pigs were individually weighed at initiation of the acclimation and test period, and immediately prior to slaughter. Feed consumption per pen was recorded. […] Live weights prior to slaughter and hot carcass weights were recorded. […] Prior to removing the sample for sensory and fatty and proximate analysis from the belly the firmness of the belly was evaluated using a flop test. At 24 hr postmortem fat thickness (10th rib), loin eye area (10th rib), visual color, firmness and marbling, Minolta color (L*a*b*), pH, and drip loss were measured. […]
In order to evaluate the fatty acid composition of pig tissues (loin, ham, skin, and belly), samples were stored at −80° C. until evaluation. […] Resultant fatty acid methyl esters (FAME's) were separated by capillary gas chromatography (GC) and detected by flame ionization detector (FID). […] Quantification was achieved by using an internal standard (c15:0 triacylglyceride (TAG) for pig tissue samples and c17:0 TAG for diet samples). […]

In the case of `CC/C=C\C/C=C\C/C=C\C/C=C\CCCCC(=O)O` [SDA, stearidonic acid], the “enrichment of SDA, ETA, and EPA in belly, loin, ham, and skin tissues” value (0.2-0.8% SDA in feed, 35 days) is reported as “enriched in belly, loin, ham, and skin tissues in a dose dependent manner”, the “levels of SDA, ETA, EPA, DPA in belly, loin, ham and skin tissues and DHA in ham tissue as compared to the control” value (SDA supplementation, 35 days) is reported as “higher levels” and the “omega 3 fatty acid enrichment in belly, loin, ham and skin tissues as compared to the control” value (pigs fed SDA for the last 35 days prior to slaughter) is reported as “significant increase”.
